Data: ChEMBL document CHEMBL4765458, “Synthesis and biological evaluation of organoselenium (NSAIDs-SeCN and SeCF) derivatives as potential anticancer agents” (Eur J Med Chem, 2020)
Calls of active or inactive are those of the source. The calls are words filed in the database; no cut-off is given here.

Key:
[1] = tested on: MCF7; test: Cytotoxicity against human MCF7 cells assessed as reduction in cell viability measured after 72 hrs by MTT assay; type: functional, cell-based; details: MCF7, 72 h
[2] = tested on: SW480; test: Cytotoxicity against human SW480 cells assessed as reduction in cell viability measured after 24 hrs by MTT assay; type: functional, cell-based; details: SW480, 24 h
[3] = tested on: MCF7; test: Cytotoxicity against human MCF7 cells assessed as reduction in cell viability measured after 24 hrs by MTT assay; type: functional, cell-based; details: MCF7, 24 h
[4] = tested on: A549; test: Cytotoxicity against human A549 cells assessed as reduction in cell viability measured after 72 hrs by MTT assay; type: functional, cell-based; details: A549, 72 h
[5] = tested on: SW480; test: Cytotoxicity against human SW480 cells assessed as reduction in cell viability measured after 72 hrs by MTT assay; type: functional, cell-based; details: SW480, 72 h
[6] = Antioxidant activity assessed as DPPH radical scavenging activity incubated for 30 mins under dark condition relative to control; type: functional; set-up: concentration or dose not given beside the values
[7] = tested on: MCF7; test: Cytotoxicity against human MCF7 cells assessed as reduction in cell viability measured after 48 hrs by MTT assay; type: functional, cell-based; details: MCF7, 48 h
[8] = tested on: HeLa; test: Cytotoxicity against human HeLa cells assessed as reduction in cell viability measured after 48 hrs by MTT assay; type: functional, cell-based
[9] = tested on: HeLa; test: Cytotoxicity against human HeLa cells assessed as reduction in cell viability measured after 24 hrs by MTT assay; type: functional, cell-based
[10] = tested on: A549; test: cells; details: Homo sapiens, A549, 48 h
Description: Cytotoxicity against human A549 cells assessed as reduction in cell viability measured after 48 hrs by MTT assay

[11] = tested on: A549; test: Cytotoxicity against human A549 cells assessed as reduction in cell viability measured after 24 hrs by MTT assay; type: functional, cell-based; details: A549, 24 h
[12] = tested on: SW480; test: Cytotoxicity against human SW480 cells assessed as reduction in cell viability measured after 48 hrs by MTT assay; type: functional, cell-based; details: SW480, 48 h
[13] = tested on: HeLa; test: Cytotoxicity against human HeLa cells assessed as reduction in cell viability measured after 72 hrs by MTT assay; type: functional, cell-based
[14] = tested on: MCF7; test: Induction of apoptosis in human MCF7 cells assessed as down regulation of Bcl-2 expression at IC50 measured after 48 hrs by ELISA relative to control; type: functional
[15] = tested on: MCF7; test: Induction of apoptosis in human MCF7 cells assessed as up regulation of caspase-3 expression at IC50 measured after 48 hrs by ELISA relative to control; type: functional
[16] = tested on: MCF7; test: Induction of apoptosis in human MCF7 cells assessed as up regulation of IL-2 expression at IC50 measured after 48 hrs by ELISA relative to control; type: functional
[17] = Antioxidant activity assessed as GPx-like activity by measuring oxidation of NADPH to NADP+ by NADPH-reductase coupled assay; type: functional

Row | Structure (SMILES) | IC50 [10] | IC50 [1] | IC50 [2] | IC50 [3] | IC50 [4] | IC50 [5] | inhibition [6] | IC50 [7] | IC50 [8] | IC50 [9] | IC50 [11] | IC50 [12] | IC50 [13] | Activity [14] | Activity [15] | Activity [16] | Activity [17]
1 | O=C(NCCC[Se]C(F)(F)F)c1ccccc1Nc1cccc(C(F)(F)F)c1 | 21.3 µM | 9.3 µM | 22.2 µM | 7.2 µM | 26.4 µM | 19.7 µM |  | 8.4 µM | 30.3 µM | 33.2 µM | 18.1 µM | 15.7 µM | > 50 µM |  |  |  | 
2 | C[C@H](C(=O)NCCC[Se]C#N)c1cccc(C(=O)c2ccccc2)c1 | 28.4 µM | 12.5 µM | 10.2 µM | 9.6 µM | 32.6 µM | 7.7 µM | 30.4% | 11.3 µM | 18.5 µM | 25.6 µM | 24.1 µM | 8.4 µM | 34.7 µM |  |  |  | 
3 | CC(C)Cc1ccc(C(C)C(=O)NCCC[Se]C(F)(F)F)cc1 (configuration not stated) | 15.2 µM | 2.8 µM | 4.9 µM | 3.4 µM | 18.5 µM | 4.2 µM | 68.7% | 4.3 µM | 17.4 µM | 11.5 µM | 9.4 µM | 3.3 µM | 19.7 µM | >50% | Active | Active | Active
4 | COc1ccc2cc([C@H](C)C(=O)NCCC[Se]C#N)ccc2c1 | > 50 µM | > 50 µM | 12 µM | 28.3 µM | > 50 µM | 30.4 µM | 22.6% | 27.1 µM | 24.5 µM | 21.5 µM | 32.2 µM | 21.7 µM | 35.7 µM |  |  |  | 
5 | COc1ccc2cc([C@H](C)C(=O)NCCC[Se]C(F)(F)F)ccc2c1 | 33.5 µM | 35.5 µM | 10 µM | 19.3 µM | > 50 µM | 25.4 µM | 37.2% | 22.1 µM | 22.5 µM | 16.5 µM | 28.4 µM | 15.7 µM | 30.7 µM |  |  |  | 
6 | C[C@H](C(=O)NCCC[Se]C(F)(F)F)c1cccc(C(=O)c2ccccc2)c1 | 18.4 µM | 9.5 µM | 8.2 µM | 8.6 µM | 22.6 µM | 6.5 µM | 48.4% | 9.3 µM | 17.5 µM | 19.6 µM | 13.1 µM | 7.4 µM | 28.7 µM |  |  |  | Active
7 | CC(C(=O)NCCC[Se]C#N)c1ccc(-c2ccccc2)c(F)c1 (configuration not stated) | 32.2 µM | > 50 µM | 23.2 µM | 22.4 µM | > 50 µM | 21.7 µM | 16.3% | 32.1 µM | 32.4 µM | 36.2 µM | 23.5 µM | 30.5 µM | 15.9 µM |  |  |  | 

Continued, in another order:

Row | IC50 [10] | Structure (SMILES) | IC50 [1] | IC50 [2] | IC50 [3] | IC50 [4] | IC50 [5] | inhibition [6] | IC50 [7] | IC50 [8] | IC50 [9] | IC50 [11] | IC50 [12] | IC50 [13] | Activity [14] | Activity [15] | Activity [16] | Activity [17]
8 | 26.5 µM | COc1ccc2c(c1)c(CC(=O)NCCC[Se]C(F)(F)F)c(C)n2C(=O)c1ccc(Cl)cc1 | 35 µM | 14.6 µM | 17.3 µM | 30.3 µM | 13.1 µM | 25.8% | 26 µM | 21.4 µM | 30.1 µM | 18.3 µM | 16.4 µM | 15.6 µM |  |  |  | 
9 | 11.3 µM | CC1=C(CC(=O)NCCC[Se]C(F)(F)F)c2cc(F)ccc2/C1=C\c1ccc([S+](C)[O-])cc1 (configuration not stated) | 10.4 µM | 13.4 µM | 8.2 µM | 7.4 µM | 10.1 µM | 32.8% | 6.4 µM | 15.1 µM | 24.3 µM | 9.4 µM | 11.4 µM | 19.4 µM |  |  |  | 
10 | 21.7 µM | CCc1cccc2c3c([nH]c12)C(CC)(CC(=O)NCCC[Se]C#N)OCC3 (configuration not stated) | > 50 µM | 19.5 µM | 35.2 µM | 36.6 µM | 20.6 µM | 24.5% | 37.4 µM | 17.4 µM | 26.8 µM | 28.4 µM | 18.9 µM | 28.5 µM |  |  |  | 
11 | 31.2 µM | COc1ccc2c(c1)c(CC(=O)NCCC[Se]C#N)c(C)n2C(=O)c1ccc(Cl)cc1 | > 50 µM | 16.3 µM | 28.3 µM | > 50 µM | 14.2 µM | 49.6% | > 50 µM | 24.4 µM | 32.1 µM | 28.5 µM | 18.2 µM | 19.6 µM |  |  |  | 
